Test results from ChEMBL document CHEMBL1201862, “PubChem BioAssay data set” (2004).
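Where inhibition never reached the appropriate level, the endpoint shown equals the highest concentration tested. Otherwise, values were interpolated linearly from a five-concentration, 48-hour dose response in 96-well plates. The concentration for 50% growth inhibition is given as GI50.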 Calls of active or inactive are those of the source. No stated cut-off is given here; in the data, active = GI50 up to about 1.1 µM and inactive = higher.

Tests used:
Assay in all cases: inhibition of tumour cell growth, NCI panel, 48 h
[1] = tested on: HOP-18
[2] = tested on: DLD-1
[3] = tested on: KM-20L2
[4] = tested on: DMS-273
[5] = tested on: XF498
[6] = tested on: LXFL 529
[7] = tested on: M19-MEL
[8] = tested on: RXF 631
[9] = tested on: DMS-114

Measured: GI50

CN(C)C(=S)/N=c1\sn(C)/c(=N\C(=S)N(C)C)n1C
inactive: [1] > 100 µM | [2] > 100 µM | [3] > 100 µM | [4] 36.7 µM | [5] > 100 µM | [6] > 100 µM | [7] 25.8 µM | [8] > 100 µM

CCCCCCCCCCCCCCCC(=O)OCC(C[As](=O)(O)O)OC(=O)CCCCCCCCCCCCCCC (stereo unspecified)
inactive: [1] > 100 µM | [2] > 100 µM | [9] 70.6 µM | [3] > 100 µM | [4] > 100 µM | [5] 27 µM | [6] > 100 µM | [7] > 100 µM | [8] 54.7 µM

COC(=O)[C@]12CC=C3O[C@@H]4OC5(CCCCC5)O[C@@H]4C3[C@@H]1C(=O)CCC2=O (stereo partly specified)
inactive: [1] > 100 µM | [2] > 100 µM | [9] > 100 µM | [3] > 100 µM | [4] > 100 µM | [5] > 100 µM | [6] > 100 µM | [8] > 100 µM

Cc1cc(/N=C2\C=C(Nc3cc(C)on3)C(=O)c3ccccc32)no1
inactive: [1] 28.4 µM | [2] > 100 µM | [9] 25.1 µM | [3] 43.7 µM | [4] 80.4 µM | [5] 35.6 µM | [6] > 100 µM | [7] 2.64 µM | [8] 28.8 µM

O=C(CC1OC(O)C(Cl)=C1Cl)c1cccnc1 (stereo unspecified)
inactive: [1] > 100 µM | [9] > 41.1 µM | [3] > 100 µM | [4] > 53 µM | [5] > 100 µM | [6] > 56.1 µM | [7] > 62.4 µM | [8] > 100 µM

C=CCONC(=O)c1ccc(Cl)cc1
inactive: [1] > 100 µM | [2] > 100 µM | [9] > 100 µM | [3] > 100 µM | [5] > 100 µM | [6] > 100 µM | [7] > 100 µM | [8] > 100 µM

CC(C)N(C(=O)C12C3C4C5(C#N)C3C1(C#N)C5C42I)C(C)C (stereo unspecified)
inactive: [1] > 100 µM | [2] > 42.6 µM | [9] > 44.4 µM | [3] > 100 µM | [4] > 43.4 µM | [5] > 100 µM | [6] > 100 µM | [7] 97.1 µM | [8] > 100 µM

CC(/C=C/C(=O)c1sc(-n2nc(-c3ccccc3)cc2-c2ccccc2)nc1C)=C\c1ccccc1
inactive: [1] > 10 µM | [2] 29.9 µM | [9] 16.9 µM | [3] 20.7 µM | [4] > 10 µM | [5] > 10 µM | [6] 38.4 µM | [7] 75 µM | [8] 65.9 µM

CS(=O)(=O)N(N(CCCl)S(=O)(=O)c1ccccc1)S(C)(=O)=O
inactive: [1] 31 µM | [2] > 100 µM | [3] > 100 µM | [4] > 100 µM | [5] > 100 µM | [6] > 100 µM | [7] > 100 µM | [8] > 100 µM
